Laboratory results published in ChEMBL document CHEMBL1201862, “PubChem BioAssay data set” (2004).
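Results reflect a 48-hour exposure of cells in 96-well plates to compound at five concentrations. Abbreviation: GI50, concentration required for 50% inhibition of growth.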 Active and inactive are the calls of the source. Cut-off read from the data, not from the text of the source: active = GI50 up to about 1.1 µM and inactive = higher.

Columns and labels:
Assay in all cases: DTP human tumour cell line panel, 48 h
SF-539 = tested on: SF-539
T47D = tested on: T47D
SK-MEL-2 = tested on: SK-MEL-2
PC-3 = tested on: PC-3
NCI-H23 = tested on: NCI-H23
Hs-578T = tested on: Hs-578T
HL-60 = tested on: HL-60
SF-295 = tested on: SF-295
UACC-62 = tested on: UACC-62
NCI/ADR-RES = tested on: NCI/ADR-RES
SNB-75 = tested on: SNB-75
SNB-19 = tested on: SNB-19
DU-145 = tested on: DU-145
CAKI-1 = tested on: CAKI-1
MDA-N = tested on: MDA-N
K562 = tested on: K562
Malme-3M = tested on: Malme-3M
HOP-92 = tested on: HOP-92
OVCAR-4 = tested on: OVCAR-4
CCRF-CEM = tested on: CCRF-CEM

Measured: GI50

CO/N=C(/C)c1cccc(Nc2nc3ccccc3c3[nH]c4ccccc4c23)c1
inactive: SF-539 14.4 µM | T47D 1.84 µM | SK-MEL-2 10.7 µM | PC-3 10.4 µM | NCI-H23 10.3 µM | Hs-578T 13.8 µM | HL-60 12.7 µM | SF-295 3.5 µM | UACC-62 6.03 µM | NCI/ADR-RES 8.97 µM | SNB-19 12.9 µM | DU-145 12.5 µM | CAKI-1 10.5 µM | MDA-N 8.3 µM | K562 5.97 µM
active: SNB-75 0.302 µM

c1ccc(SCCP(CCP(c2ccccc2)c2ccccc2)c2ccccc2)cc1 (stereo unspecified)
active: SNB-75 0.948 µM
inactive: SF-539 34.9 µM | T47D 6.58 µM | SK-MEL-2 3.07 µM | Malme-3M 11.5 µM | NCI-H23 2.95 µM | Hs-578T 4.61 µM | HOP-92 2.29 µM | HL-60 2.09 µM | SF-295 5.46 µM | NCI/ADR-RES 34.4 µM | OVCAR-4 6.14 µM | SNB-19 2.95 µM | DU-145 3.41 µM | CAKI-1 7.26 µM | MDA-N 7.52 µM | K562 4.21 µM | CCRF-CEM 8.3 µM

CCOc1ccc(Nc2nc3c(s2)C(=O)c2ccccc2C3=O)cc1
active: OVCAR-4 0.787 µM
inactive: SF-539 10.4 µM | T47D 13.6 µM | SK-MEL-2 15.1 µM | Malme-3M 2.77 µM | PC-3 5.56 µM | NCI-H23 8.13 µM | Hs-578T 12.1 µM | HOP-92 12.3 µM | HL-60 3.19 µM | SF-295 10.7 µM | UACC-62 2.24 µM | SNB-75 11.1 µM | SNB-19 15.7 µM | DU-145 14.2 µM | CAKI-1 8.41 µM | MDA-N 1.96 µM | K562 3.36 µM | CCRF-CEM 7.82 µM

CC(=O)Oc1cc(-c2oc3cc(OC(C)=O)c(C4OC(CO)C(O)C(O)C4O)c(OC(C)=O)c3c(=O)c2O)c(OC(C)=O)cc1O (stereo unspecified)
inactive: SK-MEL-2 > 100 µM | Malme-3M > 100 µM | PC-3 > 100 µM | NCI-H23 > 100 µM | Hs-578T > 100 µM | HOP-92 26.3 µM | HL-60 > 100 µM | SF-295 > 100 µM | UACC-62 > 100 µM | NCI/ADR-RES > 100 µM | OVCAR-4 > 100 µM | SNB-75 60.4 µM | DU-145 > 100 µM | CAKI-1 > 100 µM | MDA-N > 100 µM | K562 > 100 µM | CCRF-CEM 89.9 µM

COc1ccc(N2C(=O)C3c4[nH]c5ccc(C)cc5c4C4CCC(C)CC4C3C2=O)cc1 (stereo unspecified)
inactive: SF-539 17.7 µM | SK-MEL-2 33.3 µM | Malme-3M > 100 µM | PC-3 > 100 µM | NCI-H23 59 µM | Hs-578T 4.65 µM | HOP-92 76.2 µM | HL-60 > 10 µM | SF-295 27.1 µM | UACC-62 52.7 µM | NCI/ADR-RES 44.7 µM | SNB-19 61.2 µM | DU-145 > 100 µM | CAKI-1 > 100 µM | MDA-N > 100 µM | K562 66.7 µM | CCRF-CEM 18.5 µM

CCCCCCCC(=O)O[C@H]1[C@H]2[C@@H](CC1(C)C)C(=O)[C@]13O[C@H]1C(=O)[C@]1(CO1)[C@]23C
inactive: SF-539 6.84 µM | SK-MEL-2 3.7 µM | Malme-3M 3.29 µM | PC-3 17 µM | NCI-H23 3.46 µM | Hs-578T 46 µM | HOP-92 1.97 µM | SF-295 15.8 µM | UACC-62 3.55 µM | OVCAR-4 4.46 µM | SNB-75 23.4 µM | SNB-19 17.7 µM | DU-145 14.8 µM | CAKI-1 2.62 µM | MDA-N 8.95 µM
active: T47D 1.05 µM | HL-60 0.124 µM | K562 0.573 µM | CCRF-CEM 0.0615 µM
